Measured values published in US20250188069A1, “COMPOUNDS AND METHODS FOR DEGRADING CASEIN KINASE 1 ALPHA” (PIN THERAPEUTICS, INC., priority 2022, published 2025).
Structures can show the parent of a compound that is named as a salt. Where two headings read alike, the source gives them in different places.

Columns and labels:
Format in all cases: cell-based
CK1α [1] = target: T1, CK1α (Homo sapiens, UniProt P48729+Q96SW2); assay: CK1α degradation, Jess assay in MV-4-11 cells; design: CK1α levels were determined in MV-4-11 cells using Jess (Protein Simple); host or cells: MV-4-11; dose or concentration left out as unconfirmed; details: MV4-11, % reduction of CK1α compared to DMSO, MV-4-11 cells for 16 hours, normalized to β-actin, read-out: CK1α degradation classification
Method: MM.1S and NCCIT cells were obtained from ATCC and grown in RPMI-1640 supplemented with 10% FBS. MV-4-11 cells were obtained from ATCC and grown in IMDM supplemented with 10% FBS. The cells were maintained at 37° C. under 5% CO2.
Compounds of the present disclosure was added to cells (final DMSO concentration of 0.1%) and incubated for 16 hours. CK1α levels were determined in MV-4-11 cells using Jess (Protein Simple). Briefly, whole cell lysates were prepared in lysis buffer (1×RIPA buffer [Thermo, 89900], 2 mM MgCl2 [Sigma, M1028], 0.05% Benzonase [Sigma, E1014], 1× Pierce protease inhibitor tablets EDTA-free [Thermo, A32965]). 6-20 μg of the lysates were analyzed using Jess with antibodies against CK1α (Abcam, ab108296) and β-actin (R&D Systems, MAB8929). Protein levels were normalized to β-actin levels. DC50 values were obtained using four-parameter non-linear regressions using Prism (GraphPad).
The efficacy of CK1α degradation of a part of compounds of the present disclosure was determined by treating MV-4-11 cells at […] (final DMSO concentration of 0.1%) for 16 hours. CK1α levels were determined using Jess and normalized to β-actin levels. The compounds are classified based on amount of CK1α degradation (% reduction of CK1α compared to DMSO) as follows. • A: Degradation is greater than or equal to 75%; • B: Degradation is less than […] & greater than or equal to 50%; • C: Degradation is less than […]; • ND: not determined.

MV-4-11 cells = assay: AML cell viability assay (RealTime-Glo); details: Homo sapiens, read-out: Cell viability classification
CK1α [2] = target: T1, CK1α; assay: CK1α HiBiT assay in CK1a_HiBiT_Jurkat cells; details: DC50 class, 16 hours, Nano-Glo HiBiT Lytic Detection, read-out: CK1α degradation classification
Method: CK1a_HiBiT_Jurkat cells were culture in RPMI 1640 medium (Gibco, 11875093) with 10% FBS under standard tissue culture conditions. Briefly, Compounds of the present disclosure was added to 30,000 cells in a white 96-well plate (9-point dose response, top concentration […], half-log serial dilution, final DMSO concentration 0.5%) and incubated for 16 hours. CK1a level was determined in along with the Nano-Glo HiBiT Lytic Detection system [Promega N3050] with final concentration of 1 x. The luminescence was normalized to that of DMSO-treated samples. DC50 values were obtained using three-parameter non-linear regressions using Prism (GraphPad). The compounds are classified based on DC50 values as follows. • A: DC50 is less than or equal to 1×10^−7; • B: DC50 is greater than 1×10^−7 & less than or equal to 1×10^−6; • C: DC50 is greater than 1×10^−6; • NA: not calculated (no activity detected, <25% viability reduction at 1 uM)

[3] = MV4-11, IC50 class, MV-4-11 cells, RealTime-Glo after 44 hrs of treatment (TABLE 1)
[4] = MV4-11, IC50 class, MV-4-11 cells, RealTime-Glo after 44 hrs of treatment (TABLE 5)

T1 sequence (P48729 whole entry): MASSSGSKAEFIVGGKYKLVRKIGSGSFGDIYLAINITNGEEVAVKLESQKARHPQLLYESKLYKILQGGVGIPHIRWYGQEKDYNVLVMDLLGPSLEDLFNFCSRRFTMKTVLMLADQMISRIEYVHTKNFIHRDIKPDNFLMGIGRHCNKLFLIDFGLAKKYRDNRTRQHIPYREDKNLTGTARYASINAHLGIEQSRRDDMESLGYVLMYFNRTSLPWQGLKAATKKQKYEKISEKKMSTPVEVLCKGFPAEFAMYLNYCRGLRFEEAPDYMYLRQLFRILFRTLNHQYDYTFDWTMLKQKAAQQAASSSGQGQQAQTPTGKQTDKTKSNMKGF
T1 sequence (Q96SW2 whole entry): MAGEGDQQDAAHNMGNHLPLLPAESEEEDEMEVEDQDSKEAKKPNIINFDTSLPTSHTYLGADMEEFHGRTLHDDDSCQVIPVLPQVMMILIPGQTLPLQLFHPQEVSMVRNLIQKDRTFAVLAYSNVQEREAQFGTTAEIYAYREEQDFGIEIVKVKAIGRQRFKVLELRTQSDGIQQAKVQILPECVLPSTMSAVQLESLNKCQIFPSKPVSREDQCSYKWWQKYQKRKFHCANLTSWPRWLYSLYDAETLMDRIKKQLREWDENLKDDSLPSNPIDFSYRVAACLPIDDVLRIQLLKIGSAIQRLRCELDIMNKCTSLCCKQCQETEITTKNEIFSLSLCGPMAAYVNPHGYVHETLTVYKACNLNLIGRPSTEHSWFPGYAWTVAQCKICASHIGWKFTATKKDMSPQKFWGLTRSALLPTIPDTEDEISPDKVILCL
T1 sequence (Q16531 whole entry partner): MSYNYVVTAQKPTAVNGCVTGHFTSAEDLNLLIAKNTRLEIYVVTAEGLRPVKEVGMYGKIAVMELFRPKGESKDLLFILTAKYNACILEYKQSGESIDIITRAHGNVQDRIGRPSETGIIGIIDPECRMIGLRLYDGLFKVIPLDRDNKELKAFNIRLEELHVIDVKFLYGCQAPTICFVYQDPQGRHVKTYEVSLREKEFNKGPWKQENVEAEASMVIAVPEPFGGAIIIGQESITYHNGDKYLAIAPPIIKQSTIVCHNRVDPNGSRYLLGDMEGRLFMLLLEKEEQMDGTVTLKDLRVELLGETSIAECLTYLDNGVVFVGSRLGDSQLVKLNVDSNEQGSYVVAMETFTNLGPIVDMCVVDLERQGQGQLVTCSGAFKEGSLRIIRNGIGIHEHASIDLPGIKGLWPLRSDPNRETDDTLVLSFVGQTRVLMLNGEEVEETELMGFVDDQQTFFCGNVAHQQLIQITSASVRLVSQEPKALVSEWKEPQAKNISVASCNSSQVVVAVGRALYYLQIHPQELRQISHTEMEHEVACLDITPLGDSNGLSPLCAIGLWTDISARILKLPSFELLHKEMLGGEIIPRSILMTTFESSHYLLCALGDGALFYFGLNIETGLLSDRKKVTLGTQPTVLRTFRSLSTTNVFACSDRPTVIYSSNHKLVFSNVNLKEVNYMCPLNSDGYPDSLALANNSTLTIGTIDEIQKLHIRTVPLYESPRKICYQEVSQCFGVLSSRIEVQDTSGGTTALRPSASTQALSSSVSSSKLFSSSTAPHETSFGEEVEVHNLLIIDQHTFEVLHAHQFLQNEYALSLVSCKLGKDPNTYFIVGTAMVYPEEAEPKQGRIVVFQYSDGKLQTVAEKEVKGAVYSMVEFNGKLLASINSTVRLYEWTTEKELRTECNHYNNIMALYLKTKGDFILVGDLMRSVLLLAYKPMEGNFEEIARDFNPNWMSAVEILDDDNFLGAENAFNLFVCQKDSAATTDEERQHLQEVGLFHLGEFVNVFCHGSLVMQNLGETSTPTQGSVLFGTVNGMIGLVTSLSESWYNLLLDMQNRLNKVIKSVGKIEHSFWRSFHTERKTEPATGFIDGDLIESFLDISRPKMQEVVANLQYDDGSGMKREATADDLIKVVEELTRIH

Row | SMILES | Dmax (CK1α [1]) [%] | IC50 (MV-4-11 cells; [3]) [nM] | IC50 (MV-4-11 cells; [4]) [nM] | DC50 (CK1α [2]) [nM] | IC50 (MV-4-11 cells; MV4-11, 44 h) [nM]
1 | CCCN(CCCCN)c1cccc2c1CN(C1CCC(=O)NC1=O)C2=O (stereo not drawn) [Compound 4, 3-(4-((4-aminobutyl)(propyl)amino)-1-oxoisoindolin-2-yl)piperidine-2,6-dione] | > 75 | < 100 |  |  | 
2 | CCCCN(CCCCN)c1cccc2c1CN(C1CCC(=O)NC1=O)C2=O (stereo not drawn) [Compound 46, 3-(4-((4-aminobutyl)(butyl)amino)-1-oxoisoindolin-2-yl)piperidine-2,6-dione] | > 75 | < 100 |  |  | 
3 | CCCCCN(CCCCN)c1cccc2c1CN(C1CCC(=O)NC1=O)C2=O (stereo not drawn) [Compound 47, 3-(4-((4-aminobutyl)(pentyl)amino)-1-oxoisoindolin-2-yl)piperidine-2,6-dione] | > 75 |  |  |  | < 100
4 | CCCCCCN(CCCCN)c1cccc2c1CN(C1CCC(=O)NC1=O)C2=O (stereo not drawn) [Compound 48, 3-(4-((4-aminobutyl)(hexyl)amino)-1-oxoisoindolin-2-yl)piperidine-2,6-dione] | > 75 | < 100 |  |  | 
5 | CCCN(CCCCNC(C)=O)c1cccc2c1CN(C1CCC(=O)NC1=O)C2=O (stereo not drawn) [Compound 50, N-(4-((2-(2,6-dioxopiperidin-3-yl)-1-oxoisoindolin-4-yl)(propyl)amino)butyl)acetamide] | > 75 | < 100 |  |  | 
6 | O=C1CCC(N2Cc3c(cccc3N(CCC3CC3)[C@H]3CC[C@H](NCc4nccs4)CC3)C2=O)C(=O)N1 (stereo partly drawn) [Compound 663, 3-{4-[(2-cyclopropylethyl)[(1r,4r)-4-[(1,3-thiazol-2-ylmethyl)amino]cyclohexyl]amino]-1-oxo-3H-isoindol-2-yl}piperidine-2,6-dione] |  |  | 100 to 1000 | ≤ 100 | 
7 | O=C1CCC(N2Cc3c(cccc3N(CCC3CC3)[C@H]3CC[C@H](NCc4ccccn4)CC3)C2=O)C(=O)N1 (stereo partly drawn) [Compound 665, 3-{4-[(2-cyclopropylethyl)[(1r,4r)-4-[(pyridin-2-ylmethyl)amino]cyclohexyl]amino]-1-oxo-3H-isoindol-2-yl}piperidine-2,6-dione; formic acid] |  |  | 100 to 1000 | ≤ 100 | 
8 | O=C1CCC(N2Cc3c(cccc3N(CCC3CC3)[C@H]3CC[C@H](NCC4CCCO4)CC3)C2=O)C(=O)N1 (stereo partly drawn) [Compound 666, 3-{4-[(2-cyclopropylethyl)[(1r,4r)-4-[(oxolan-2-ylmethyl)amino]cyclohexyl]amino]-1-oxo-3H-isoindol-2-yl}piperidine-2,6-dione] |  |  | < 100 | ≤ 100 | 
9 | O=C1CCC(N2Cc3c(cccc3N(CCC3CC3)[C@H]3CC[C@H](N4CCCC4)CC3)C2=O)C(=O)N1 (stereo partly drawn) [Compound 669] |  |  | 100 to 1000 | ≤ 100 | 
10 | O=C1CCC(N2Cc3c(cccc3N(CCC3CC3)[C@H]3CC[C@H](N4CCC(F)(F)C4)CC3)C2=O)C(=O)N1 (stereo partly drawn) [Compound 670] |  |  | 100 to 1000 | ≤ 100 | 
11 | O=C1CCC(N2Cc3c(cccc3N(CCC3CC3)[C@H]3CC[C@H](N4CCOCC4)CC3)C2=O)C(=O)N1 (stereo partly drawn) [Compound 674, 3-{4-[(2-cyclopropylethyl)[(1r,4r)-4-(morpholin-4-yl)cyclohexyl]amino]-1-oxo-3H-isoindol-2-yl}piperidine-2,6-dione] |  |  | < 100 | ≤ 100 | 
12 | O=C1CCC(N2Cc3c(cccc3N(CCC3CC3)C34CC(CNCCC(F)(F)F)(C3)C4)C2=O)C(=O)N1 (stereo not drawn) [Compound 703, 3-{4-[(2-cyclopropylethyl)(3-{[(3,3,3-trifluoropropyl)amino]methyl}bicyclo[1.1.1]pentan-1-yl)amino]-1-oxo-3H-isoindol-2-yl}piperidine-2,6-dione] |  |  | 100 to 1000 | ≤ 100 | 
13 | O=C1CCC(N2Cc3c(cccc3N(CCC3CC3)[C@H]3CC[C@H](N4CCC(F)(F)CC4)CC3)C2=O)C(=O)N1 (stereo partly drawn) [Compound 716, 3-(4-((2-cyclopropylethyl)((1r,4r)-4-(4,4-difluoropiperidin-1-yl)cyclohexyl)amino)-1-oxoisoindolin-2-yl)piperidine-2,6-dione 2,2,2-trifluoroacetate] |  |  | 100 to 1000 | ≤ 100 | 

The next lines start with results.

Row | Dmax (CK1α [1]) [%] | IC50 (MV-4-11 cells; [3]) [nM] | IC50 (MV-4-11 cells; [4]) [nM] | DC50 (CK1α [2]) [nM] | SMILES | IC50 (MV-4-11 cells; MV4-11, 44 h) [nM]
14 |  |  | 100 to 1000 | ≤ 100 | O=C1CCC(N2Cc3c(cccc3N(CCC3CC3)[C@H]3CC[C@H](NCc4ccc(C(F)(F)F)cn4)CC3)C2=O)C(=O)N1 (stereo partly drawn) [Compound 664, 3-{4-[(2-cyclopropylethyl)[(1r,4r)-4-({[5-(trifluoromethyl)pyridin-2-yl]methyl}amino)cyclohexyl]amino]-1-oxo-3H-isoindol-2-yl}piperidine-2,6-dione formic acid] | 
15 |  |  | < 100 | ≤ 100 | CN(C)[C@H]1CC[C@H](N(CCC2CC2)c2cccc3c2CN(C2CCC(=O)NC2=O)C3=O)CC1 (stereo partly drawn) [Compound 668, 3-{4-[(2-cyclopropylethyl)[(1r,4r)-4-(dimethylamino)cyclohexyl]amino]-1-oxo-3H-isoindol-2-yl}piperidine-2,6-dione] | 
16 |  |  | 100 to 1000 | ≤ 100 | O=C1CCC(N2Cc3c(cccc3N(CCC3CC3)[C@H]3CC[C@H](N4CCC(F)C4)CC3)C2=O)C(=O)N1 (stereo partly drawn) [Compound 671, 3-{4-[(2-cyclopropylethyl)[(1r,4r)-4-(3-fluoropyrrolidin-1-yl)cyclohexyl]amino]-1-oxo-3H-isoindol-2-yl}piperidine-2,6-dione] | 
17 |  |  | 100 to 1000 | ≤ 100 | O=C1CCC(N2Cc3c(cccc3N(CCC3CC3)[C@H]3CC[C@H](N4CCC(C(F)(F)F)C4)CC3)C2=O)C(=O)N1 (stereo partly drawn) [Compound 672, 3-{4-[(2-cyclopropylethyl)[(1r,4r)-4-[3-(trifluoromethyl)pyrrolidin-1-yl]cyclohexyl]amino]-1-oxo-3H-isoindol-2-yl}piperidine-2,6-dione; trifluoroacetic acid] | 
18 |  |  | > 1000 | ≤ 100 | O=C1CCC(N2Cc3c(cccc3N(CCC3CC3)[C@H]3CC[C@H](N4CC(C(F)(F)F)C4)CC3)C2=O)C(=O)N1 (stereo partly drawn) [Compound 673] | 
19 |  |  | 100 to 1000 | ≤ 100 | O=C1CCC(N2Cc3c(cccc3N(CCC3CC3)[C@H]3CC[C@H](N[C@H]4CC[C@@H]4C(F)(F)F)CC3)C2=O)C(=O)N1 (stereo partly drawn) [Compound 675, 3-{4-[(2-cyclopropylethyl)[(1r,4r)-4-{[(1S,2S)-2-(trifluoromethyl)cyclobutyl]amino}cyclohexyl]amino]-1-oxo-3H-isoindol-2-yl}piperidine-2,6-dione; bis(trifluoroacetic acid)] | 
20 |  |  | 100 to 1000 | 100 to 1000 | O=C1CCC(N2Cc3c(cccc3N(CCC3CC3)C3CCC(N[C@H]4C[C@@H]4C(F)(F)F)CC3)C2=O)C(=O)N1 (stereo partly drawn) [Compound 678, 3-(4-((2-cyclopropylethyl)(4-(((1S,2S)-2-(trifluoromethyl)cyclopropyl)amino)cyclohexyl)amino)-1-oxoisoindolin-2-yl)piperidine-2,6-dione Trifluoroacetate] | 
21 |  |  | 100 to 1000 | ≤ 100 | COCCN(C)[C@H]1CC[C@H](N(CCC2CC2)c2cccc3c2CN(C2CCC(=O)NC2=O)C3=O)CC1 (stereo partly drawn) [Compound 680] | 
22 |  |  | < 100 | ≤ 100 | CN(CCCC(F)(F)F)[C@H]1CC[C@H](N(CCC2CC2)c2cccc3c2CN(C2CCC(=O)NC2=O)C3=O)CC1 (stereo partly drawn) [Compound 681, 3-{4-[(2-cyclopropylethyl)[(1r,4r)-4-[methyl(4,4,4-trifluorobutyl)amino]cyclohexyl]amino]-1-oxo-3H-isoindol-2-yl}piperidine-2,6-dione] | 
23 |  |  | < 100 | ≤ 100 | CN(CCC(F)(F)F)[C@H]1CC[C@H](N(CCC2CC2)c2cccc3c2CN(C2CCC(=O)NC2=O)C3=O)CC1 (stereo partly drawn) [Compound 682] | 
24 |  |  | < 100 | ≤ 100 | CN(CCC(F)F)[C@H]1CC[C@H](N(CCC2CC2)c2cccc3c2CN(C2CCC(=O)NC2=O)C3=O)CC1 (stereo partly drawn) [Compound 683, 3-(4-((2-cyclopropylethyl)((1r,4r)-4-((3,3-difluoropropyl)(methyl)amino)cyclohexyl)amino)-1-oxoisoindolin-2-yl)piperidine-2,6-dione tris(2,2,2-trifluoroacetate)] | 
